“Also recorded” adds a separate entry of the source. Read-outs that look alike come from different tables or passages of the source.
Legend:
HCV [1] = conditions: within 5 days of therapy; cited from earlier work
HCV [2] = conditions: cited from earlier work
HCV [3] = conditions: higher doses (500-1500 mg/day); cited from earlier work
HCV genotype 1 [4] = conditions: 1500-mg twice-daily, 14 days, treatment-naive; cited from earlier work
HCV genotype 1 [5] = conditions: cited from earlier work
HCV genotype 1 [6] = conditions: 400 mg thrice daily, 14 days monotherapy, nonresponders to pegylated interferon alfa; cited from earlier work
HCV genotype 1 [7] = conditions: 400 mg thrice daily for 14 days with pegylated interferon alfa-2b, previous nonresponders; cited from earlier work
[8] = test system: genotype 1 chronic HCV infection; assay: Phase 2a dose ranging study of SCV-07: HCV viral load; assay type: in vivo, human
From the text: (§1) Here we describe interim results from a phase 2a, proof of principle, multicenter, randomized, controlled, single-blind dose ranging study, which is evaluating the safety and antiviral effect of SCV-07 in non-cirrhotic subjects with genotype 1 chronic HCV infection. Subjects enrolled in the study must have relapsed to previous treatment with PEGylated interferon and ribavirin; therefore any change in HCV viral load of greater than 0.5 log could be considered a significant response.
(§2) Subjects are treated with 7 daily injections of SCV-07 (8 subjects per cohort) or saline (2 per cohort). […] Due to this apparent late response, a 30-day follow up visit was added for Cohort 3. Of the 4 subjects in this Cohort who have reached the 30-day visit, one has responded with a 1.2-log drop in HCV along with an increase in neopterin (see Table1).

neopterin = assay: Phase 2a dose ranging study of SCV-07: plasma biomarker neopterin; assay type: in vivo, human; conditions: Cohort 3, 1.0 mg/kg (interim); single responding subject
From the text: as §1, §2
A plasma concentration of neopterin above 10 nmol/L represents a “stimulated” immune system. […] Increased levels of neopterin also are correlated with increased sustained viral responses against HCV, and so is very strong evidence for the use of SCV-07 in this disease. The timing of the increase is also of interest.

[9] = Phase 2a dose ranging study of SCV-07: safety and tolerability; assay type: in vivo, human
From the text: as §1, §2
Further clinical investigation into longer treatment duration or addition to other anti-viral agents appears warranted.

HCV [10] = assay: Combination treatment of hepatitis C patients, Examples 2-4; assay type: in vivo, human; conditions: Example 4: 0.1-2.0 mg/kg/day with STAT-C and/or ribavirin and/or pegylated interferon alpha-2b or alpha-2a, up to 48 weeks
From the text: Treatment, as in the examples above, results in achieving a sustained virological response (SVR) (which is accepted as cure and used as the efficacy endpoint for FDA approval), of 65-75%. This compares favorably with the current SOC SVR of 45-50%. This improved SVR is achieved in a regimen that has much less toxicity when compared to SOC (interferon sparing).

thymocyte and lymphocyte = conditions: in vitro; cited from earlier work
spleen lymphocytes = conditions: cited from earlier work
bone marrow cells = conditions: cited from earlier work
[11] = test system: 5-FU-immune-suppressed animals; conditions: cited from earlier work
sheep red blood cells = conditions: immunization with sheep red blood cells; cited from earlier work
STAT-3 = conditions: cited from earlier work
[12] = test system: Th1 cytokines IFN-g and IL-2, Th2 cytokines IL-4 and IL-10; conditions: cited from earlier work
Pichinde virus = Pichinde virus in guinea pigs; cited from earlier work
[13] = test system: Cottontail papilloma virus; conditions: Cottontail papilloma virus in rabbits; cited from earlier work
herpes virus HSV-2 = conditions: guinea pigs infected with herpes virus HSV-2; cited from earlier work
[14] = 1500 mg twice daily for 14 days
[15] = 3000 mg twice daily for 14 days
[16] = 4500 mg twice daily for 14 days

## CCCCCOc1ccc(NC(=S)NC(=O)c2cccnc2)cc1C(F)(F)F [ACH-806]
HCV [1]
  drop in HCV RNA: 2.38 log

## COc1ccc2c(O[C@@H]3C[C@H]4C(=O)N[C@]5(C(=O)O)C[C@H]5/C=C\CCCCC[C@H](NC(=O)OC5CCCC5)C(=O)N4C3)cc(-c3csc(NC(C)C)n3)nc2c1 [BILN-2061]
HCV [2]; HCV genotype 1
  antiviral activity, HCV genotype 1: potent antiviral activity
HCV [2]; HCV genotype 2 and 3
  virologic response, HCV genotype 2 and 3 patients: less pronounced and more variable
HCV [2]; phase 1
  time of viral load reduction: ≤ 48 h

## CNC(=O)c1c(-c2ccc(F)cc2)oc2cc(N(CCO)S(C)(=O)=O)c(C3CC3)cc12 [HCV-796]
HCV [3]
  drop in the HCV RNA viral load: ~1.2 log

## CC(C)C(=O)OC[C@@]1(N=[N+]=[N-])O[C@@H](n2ccc(N)nc2=O)[C@H](OC(=O)C(C)C)[C@@H]1OC(=O)C(C)C [R1626]
HCV genotype 1 [4]
  reduction in HCV RNA: approximately 1.2 log
HCV genotype 1 [5]; 500 mg twice daily for 14 days
  Mean HCV viral reduction: 0.3 log 10
  median HCV viral reduction: 0.2 log 10
HCV genotype 1 [5]; [14]
  Mean HCV viral reduction: 1.2 log 10
  median HCV viral reduction: 0.8 log 10
HCV genotype 1 [5]; [15]
  Mean HCV viral reduction: 2.6 log 10
  median HCV viral reduction: 2.7 log 10
HCV genotype 1 [5]; [16]
  Mean HCV viral reduction: 3.7 log 10
  median HCV viral reduction: 4.1 log 10

## CC(C)(C)NC(=O)N[C@H](C(=O)N1C[C@H]2[C@@H]([C@H]1C(=O)NC(CC1CCC1)C(=O)C(N)=O)C2(C)C)C(C)(C)C (stereo partly shown) [SCH503034]
HCV genotype 1 [6]
  drop in HCV RNA from the baseline value: approximately 2 log
HCV genotype 1 [7]
  reduction in HCV RNA: 2.88 log

## N[C@H](CCC(=O)N[C@@H](Cc1c[nH]c2ccccc12)C(=O)O)C(=O)O [SCV-07, γ-D-glutamyl-L-tryptophan]
[8]; Cohort 1, 0.01 mg/kg
  HCV viral load response: no responses
[8]; Cohort 2, 0.10 mg/kg, day 14 follow up visit
  subjects with decrease in viral load and increase in neopterin: 2 subjects
[8]; Cohort 3, 1.0 mg/kg (interim), 7 daily injections, single responding subject, 30-day visit
  HCV viral load (log10 decrease) Day 30: 1.2 log10
[8]; Cohort 3, one of 4 subjects at the 30-day visit
  drop in HCV: 1.2 log
neopterin
  Neopterin (nmol/L) Day 30: 33 nmol/L
[9]; all 3 dose groups
  SAEs reported: No SAEs were reported
  discontinuation of treatment due to AEs: no subject had to discontinue treatment due to AEs
  tolerability: well tolerated
[9]; any of the subjects
  changes in ALT from baseline: No significant changes
HCV [10]
  response against HCV: improved response
Thymocyte and lymphocyte
  Con-A-induced thymocyte and lymphocyte proliferation: increases
Spleen lymphocytes
  Con-A-induced interleukin-2 (IL-2) production and IL-2 receptor expression by spleen lymphocytes: increases
Bone marrow cells
  expression of Thy-1.2 on bone marrow cells: stimulates expression
[11]
  immunostimulatory effect: strong immunostimulatory effect
Sheep red blood cells
  immunostimulatory effect: strong immunostimulatory effect
STAT-3
  STAT-3 dependent signaling / STAT3 activity: inhibition; also recorded: inhibit
[12]
  Th2 cytokines IL-4 and IL-10: decreasing
  production of the Th1 cytokines IFN-g and IL-2: increases
Pichinde virus
  survival: increased survival
[13]
  survival: increased survival
Herpes virus HSV-2
  recurrence: decreased recurrence
